Source: article PMC6469168, “Localization of ^99mTc-GRP Analogs in GRPR-Expressing Tumors: Effects of Peptide Length and Neprilysin Inhibition on Biological Responses” (Pharmaceuticals, 2019)
Like-named read-outs stand apart in the source and are kept apart here. Each block holds one molecule with its values, some of them ahead of it. Where no end group is shown, it is not given here. The star is where a group is joined. DOTA = O=C(O)CN1CCN(CC(=O)O)CCN(CC(=O)*)CCN(CC(=O)O)CC1; N4 = tetraamine chelator for 99mTc

Columns and labels:
[1] = target: T1, GRPR-sites on PC-3 cell membranes (Homo sapiens, UniProt P30550); experiment: Competition binding against [^125I-Tyr^4]BBN in PC-3 cell membranes; settings: 1 h at 22 °C, 50 pM radioligand, triplicates per concentration, read-out: IC50, [^125I-Tyr^4]BBN displacement from GRPR-sites
T1 construct: PC-3 cells endogenously expressing the human GRPR; host or cells: PC-3 cell-membrane homogenates
T1 sequence (P30550 whole entry): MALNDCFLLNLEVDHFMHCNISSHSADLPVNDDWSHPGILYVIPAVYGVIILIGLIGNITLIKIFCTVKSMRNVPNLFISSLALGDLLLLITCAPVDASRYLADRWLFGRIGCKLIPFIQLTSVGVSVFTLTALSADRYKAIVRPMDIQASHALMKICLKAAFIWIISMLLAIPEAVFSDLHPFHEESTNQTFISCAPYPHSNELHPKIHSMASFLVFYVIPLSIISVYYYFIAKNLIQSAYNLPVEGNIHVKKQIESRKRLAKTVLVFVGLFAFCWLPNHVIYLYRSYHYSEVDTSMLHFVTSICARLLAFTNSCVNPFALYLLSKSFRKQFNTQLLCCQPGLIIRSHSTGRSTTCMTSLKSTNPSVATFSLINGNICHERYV
Experimental: Moreover, coupling of the positively charged acyclic tetraamine unit in the N-terminus of parent GRP(14/18–27) references improved the affinity of resulting analogs to the GRPR, as previously reported for similarly modified peptide analogs.
(b) GRPR-specific internalization of ^99mTc-N4-GRP(14–27) (red solid line) and ^99mTc-N4-GRP(18–27) (blue solid line) in PC-3 cells during incubation at 37 °C at 15, 30, 60, and 120 min. Results represent average of cell internalized activity ± sd, n = 3; data is corrected for nonspecific internalization in the presence of 1 µM [Tyr^4]BBN.
Competition binding experiments against [^125I-Tyr^4] […] For the assay, triplicates per concentration point (concentration range: 10^−13–10^−6 M) of each test peptide were incubated together with the radioligand (~40,000 cpm per assay tube at a 50 pM concentration) in PC-3 cell-membrane homogenates in a total volume of 300 μL binding buffer (BB, 50 mM HEPES pH 7.4, 1% BSA, 5.5 mM MgCl2, 35 μM bacitracin) for 1 h at 22 °C in an Incubator-Orbital Shaker (MPM Instr. SrI, Bernareggio, Italy). Binding was interrupted by ice-cold washing buffer (WB, 10 mM HEPES pH 7.4, 150 mM NaCl) and rapid filtration (Whatman GF/B filters presoaked in BB) on a Brandel Cell Harvester (Adi Hassel Ing. Büro, Munich, Germany). Filters were washed with ice-cold WB and counted in an automatic well-type gamma counter (NaI(Tl) 3′-crystal, Cobra Packard Auto-Gamma 5000 series instrument). The IC50 values were calculated using nonlinear regression according to a one-site model applying the PRISM 2 program (Graph Pad Software, San Diego, CA, USA).

[2] = target: T2, BB3R in human lung (bronchial) carcinoids (Homo sapiens, UniProt P32247); experiment: Receptor autoradiography competition binding vs ^125I-[DTyr^6,βAla^11,Phe^13,Nle^14]BBN(6–14) in human tumor sections; settings: human lung (bronchial) carcinoid sections, same universal radioligand, mean ± SEM, n in parentheses, read-out: IC50s in nM, BB3R
T2 construct: from tissue; host or cells: human bronchial carcinoid cryostat sections
T2 sequence (P32247 1-399): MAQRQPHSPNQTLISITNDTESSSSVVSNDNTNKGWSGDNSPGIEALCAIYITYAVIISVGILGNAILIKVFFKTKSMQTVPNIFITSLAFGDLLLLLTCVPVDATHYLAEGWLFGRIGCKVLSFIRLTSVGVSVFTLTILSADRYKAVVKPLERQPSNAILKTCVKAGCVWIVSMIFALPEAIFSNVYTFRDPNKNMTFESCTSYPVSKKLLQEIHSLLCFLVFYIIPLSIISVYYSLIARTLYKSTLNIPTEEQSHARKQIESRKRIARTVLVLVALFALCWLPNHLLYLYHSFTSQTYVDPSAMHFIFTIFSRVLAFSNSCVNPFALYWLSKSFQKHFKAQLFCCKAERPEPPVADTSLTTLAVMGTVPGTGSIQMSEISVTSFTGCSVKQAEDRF
Excerpt: IC50 values are given in nM ± SEM.

GRPR = settings: DOTA-derivatized analogs; read-out: IC50, GRPR binding affinity; cited from earlier work
Excerpt: It is interesting to note that the presence of the positively charged N4^+x-moiety at positions 13 and 17 of the native GRP chain occupy the two basic amino acids Lys^13 and Arg^17.

[3] = target: T3, GRPR expressed in human prostate cancer (Homo sapiens, UniProt P30550); settings: receptor autoradiography, human prostate cancer sections; mean, n = 2; read-out: IC50s in nM, GRPR; cited from earlier work
T3 construct: from tissue; host or cells: human prostate carcinoma cryostat sections
T3 sequence (P30550 whole entry): as the sequence (P30550 whole entry) above
Excerpt: (§1) Table 1 Affinities for the three human bombesin receptor subtypes. | column: IC50s in nM / GRPR ^1 || The selective affinities of N4-GRP(14–27) for each of the three bombesin receptor subtypes found in mammals were studied during in vitro competition binding assays against the universal radioligand ^125I-[DTyr^6,βAla^11,Phe^13,Nle^14]BBN(6–14). Receptor autoradiography was applied in cryostat sections of well characterized human cancers, preferentially expressing one of the subtypes.

[4] = target: T2, BB3R in human lung (bronchial) carcinoids; settings: receptor autoradiography, human lung carcinoid sections; read-out: IC50s in nM, BB3R; cited from earlier work
Excerpt: Receptor autoradiography was applied in cryostat sections of well characterized human cancers, preferentially expressing one of the subtypes.

[5] = target: T4, NMBR in human ileal carcinoids (Homo sapiens, UniProt P28336); settings: receptor autoradiography, human ileal carcinoid sections; mean, n = 2; read-out: IC50s in nM, NMBR; cited from earlier work
T4 construct: from tissue; host or cells: human ileal carcinoid cryostat sections
T4 sequence (P28336 whole entry): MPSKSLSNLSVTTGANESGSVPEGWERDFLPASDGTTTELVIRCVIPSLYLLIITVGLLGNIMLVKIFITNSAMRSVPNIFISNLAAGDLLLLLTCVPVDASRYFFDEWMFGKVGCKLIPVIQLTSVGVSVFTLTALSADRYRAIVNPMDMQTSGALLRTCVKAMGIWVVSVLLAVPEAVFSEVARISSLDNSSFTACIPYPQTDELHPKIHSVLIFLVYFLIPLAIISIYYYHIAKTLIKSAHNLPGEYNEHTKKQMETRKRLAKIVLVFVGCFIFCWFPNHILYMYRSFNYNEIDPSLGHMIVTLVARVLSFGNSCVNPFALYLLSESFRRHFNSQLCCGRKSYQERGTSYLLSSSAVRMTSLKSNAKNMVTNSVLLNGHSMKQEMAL
Excerpt: as §1, with “NMBR ^2” for “GRPR ^1”

PC-3 cells = experiment: Internalization assay in PC-3 cells; type: cell-based, human; settings: 37 °C, corrected for nonspecific (1 µM [Tyr^4]BBN), average ± sd, n = 3
Experimental: In both cases the bulk of cell-associated radioactivity was found in the cells with ^99mTc-N4-GRP(14–27) internalizing much faster in PC-3 cells compared to ^99mTc-N4-GRP(18–27) at all time intervals (Figure 3b).
The internalization rates of ^99mTc-N4-GRP(14–27) and ^99mTc-N4-GRP(18–27) were compared in PC-3 cells. Briefly, PC-3 cells were seeded in six-well plates (~1 × 10^6 cells per well) 24 h before the experiment. Approximately 50,000 cpm of either ^99mTc-N4-GRP(14–27) or ^99mTc-N4-GRP(18–27) (corresponding to 250 fmol total peptide in 150 μL of 0.5% BSA/PBS) was added alone (total) or in the presence of 1 μM [Tyr^4]BBN (nonspecific). Cells were incubated at 37 °C for 15, 30, 60, and 120 min and incubation was interrupted each time by placing the plates on ice, removing the supernatants and rapid rinsing with ice-cold 0.5% BSA/PBS. Cells were then treated 2 × 5 min with acid wash buffer (2 × 0.6 mL, 50 mM glycine buffer pH 2.8, 0.1 M NaCl) at room temperature and supernatants were collected (membrane-bound fraction). After rinsing with 1 mL chilled 0.5% BSA/PBS, cells were lysed by treatment with 1 N NaOH (2 × 0.6 mL) and lysates were collected (internalized fraction). Sample radioactivity was measured in the γ-counter and percent internalized radioactivity was determined vs. total added activity. Results represent the average values ± sd of three experiments performed in triplicate.

IC50 [1]: 0.45 ± 0.02 nM
Molecule: CSCC[C@H](NC(=O)[C@H](CC(C)C)NC(=O)[C@H](Cc1c[nH]cn1)NC(=O)CNC(=O)[C@@H](NC(=O)[C@H](C)NC(=O)[C@H](Cc1c[nH]c2ccccc12)NC(=O)[C@H](Cc1c[nH]cn1)NC(=O)[C@H](CC(N)=O)NC(=O)CNC(=O)[C@H](CCCNC(=N)N)NC(=O)[C@@H]1CCCN1C(=O)[C@H](Cc1ccc(O)cc1)NC(=O)[C@@H](N)CCSC)C(C)C)C(N)=O [GRP(14–27)]

IC50 [1]: 1.66 ± 0.2 nM
Molecule: CSCC[C@H](NC(=O)[C@H](CC(C)C)NC(=O)[C@H](Cc1cnc[nH]1)NC(=O)CNC(=O)[C@@H](NC(=O)[C@H](C)NC(=O)[C@H](Cc1c[nH]c2ccccc12)NC(=O)[C@H](Cc1cnc[nH]1)NC(=O)[C@H](CC(N)=O)NC(=O)CN)C(C)C)C(N)=O [GRP(18–27), H-Gly-Asn-His-Trp-Ala- Val-Gly-His-Leu-Met-NH2]

IC50 [1]: 0.32 ± 0.03 nM
Molecule: CSCC[C@H](NC(=O)[C@H](CC(C)C)NC(=O)[C@H](Cc1c[nH]cn1)NC(=O)CNC(=O)[C@@H](NC(=O)[C@H](C)NC(=O)[C@H](Cc1c[nH]c2ccccc12)NC(=O)[C@H](Cc1c[nH]cn1)NC(=O)[C@H](CC(N)=O)NC(=O)CNC(=O)[C@H](CCCNC(=N)N)NC(=O)[C@@H]1CCCN1C(=O)[C@H](Cc1ccc(O)cc1)NC(=O)[C@H](CCSC)NC(=O)C(CNCCN)CNCCN)C(C)C)C(N)=O [N4-GRP(14–27)]
IC50 [2]: > 1000 nM

IC50 [1]: 0.63 ± 0.06 nM
Molecule: CSCC[C@H](NC(=O)[C@H](CC(C)C)NC(=O)[C@H](Cc1c[nH]cn1)NC(=O)CNC(=O)[C@@H](NC(=O)[C@H](C)NC(=O)[C@H](Cc1c[nH]c2ccccc12)NC(=O)[C@H](Cc1c[nH]cn1)NC(=O)[C@H](CC(N)=O)NC(=O)CNC(=O)C(CNCCN)CNCCN)C(C)C)C(N)=O [N4-GRP(18–27)]

Molecule: DOTA-GRP(14–27): GRP(14–27) coupled to DOTA, previously reported ({DOTA}-MYPRGNHWAVGHLM-NH2; ends and bridges not checked; UniProt P07492 37-50, looked up, fragment)
IC50 (GRPR): 6.6 ± 0.9 nM

Molecule: DOTA-GRP(18–27): GRP(18–27) coupled to DOTA, previously reported
IC50 (GRPR): 112 ± 16 nM

Molecule: N4-[Pro^1,Tyr^4]BBN (PQRYGNQWAVGHLM) [Demobesin 3, tetraamine derivatized BBN-like analog]
IC50 [3]: 0.5 nM | IC50 [4]: > 100 nM

Molecule: N4-[Pro^1,Tyr^4]BBN (PQRYGNQWAVGHLM; not fully specified (N-terminus); ends and bridges not checked) [Demobesin 3, tetraamine derivatized BBN-like analog]
IC50 [5]: 1.6 nM

Molecule: ^99mTc-N4-GRP(14–27): ^99mTc-labeled N4-GRP(14–27) radioligand (N4-MYPRGNHWAVGHLM-NH2; ends and bridges not checked; also: 99mTc complex at N4; UniProt P07492 37-50, looked up, fragment)
specifically internalized, % of total added activity (PC-3 cells; 1 h): 12.7 ± 0.7% | specifically internalized, % of total added activity (PC-3 cells; 2 h): 19.5 ± 1.4%

Molecule: ^99mTc-N4-GRP(18–27): ^99mTc-labeled N4-GRP(18–27) radioligand (N4-GNHWAVGHLM-NH2; ends and bridges not checked; also: 99mTc complex at N4; UniProt P07492 41-50, looked up, fragment)
specifically internalized, % of total added activity (PC-3 cells; 1 h): 5.0 ± 0.3% | specifically internalized, % of total added activity (PC-3 cells; 2 h): 6.9 ± 1.5%
